Reference: patent publication US20250341517A1, “SWITCHING PEPTIDE, IMMUNOASSAY DEVICE COMPRISING SAME, AND IMMUNOASSAY METHOD USING SAME” (OPTOLANE TECHNOLOGIES INC., priority 2021, published 2025)
Ends that are not written are not given here. FAM = carboxyfluorescein (FAM) fluorescent label

Tests used:
Anti-HRP antibody(r) = experiment: Release of fluorescently labeled switching peptide from immobilized antibody on antigen binding (Table 4); set-up: species or system rabbit; settings: after treatment with antigen HRP
[1] = system: anti-HRP antibody from a rabbit; experiment: One-step immunoassay with varying HRP concentration (FIG. 8); type: binding; settings: HRP 0.3 to 100 μM (FIG. 8B)
Description: FIG. 8A is a schematic diagram for explaining an immunoassay method using fluorescently labeled peptide compounds of Example 1, and FIGS. 8B and 8C are graphs illustrating the fluorescence intensity in a solution and at a bottom of the microplate depending on a concentration of the antigen measured by the immunoassay method illustrated in FIG. 8A. In this experiment, an anti-HRP antibody from a rabbit immobilized on a microplate was used as the binding antibody and HRP was used as the antigen.

Anti-HBsAg antibody(g) = experiment: Release of fluorescently labeled switching peptide from immobilized antibody on antigen binding (Table 4); set-up: species or system goat; settings: after treatment with antigen HBsAg
[2] = system: rabbit anti-HRP antibodies; experiment: Papain treatment of immobilized antibody with bound switching peptide (FIG. 7); type: binding; settings: after papain treatment compared to before
Description: FIG. 7A is a schematic diagram illustrating states before and after treatment of the antibody to which the four types of peptides of Example 1 were bound, respectively, with papain, which is a protease, and FIG. 7B is graphs illustrating a fluorescence intensity measured at a bottom (B) of the microplate and in a solution(S) after the papain treatment. In the case of this experiment, after immobilization of the antibodies (rabbit anti-HRP antibodies) on the microplate, binding between the antibody and the switching peptide was induced by treatment with a fluorescently labeled switching peptide, the unbound switching peptide was removed, and then the Fab region was hydrolyzed from the immobilized antibodies by adding papain, which is a protease.
Referring to FIG. 7A, the fluorescence at the bottom (B) of the microplate is expected to decrease after the papain reaction because the fluorescently labeled switching peptides are bound to the Fab region of antibodies, and the fluorescence in the solution is expected to increase because the Fab region to which the switching peptide is bound is hydrolyzed and dissolved into the solution. This prediction is proven to be true from the graphs of FIG. 7B.

Anti-hCG antibody(m) = experiment: Release of fluorescently labeled switching peptide from immobilized antibody on antigen binding (Table 4); set-up: species or system mouse
Anti-CRP antibody(r) = experiment: as above; set-up: species or system rabbit
anti-HBsAG antibody [3] = experiment: Fluorescence immunoassay with FAM switching peptide and TQ2 quenching material (FIGS. 9-12); type: binding; settings: for fluorescence intensity, antigen selectivity: HBsAg
Description: FIG. 9 is a graph illustrating a fluorescence intensity measured after reacting an anti-HBSAG antibody to which an H2 switching peptide of Example 2 and a Tide-Quencher 2 (TQ2) quenching material are bound, with HBsAg, Inf A, Inf B (Florida), Inf B (Tokio), and PBS sample solutions, respectively.
FIG. 10 is a graph illustrating a fluorescence intensity measured after reacting the anti-HBsAG antibody to which the H2 switching peptide of Example 2 and the Tide-Quencher 2 (TQ2) quenching material are bound, with detection sample solutions each containing various concentrations of HBsAg antigens.
FIG. 11 is a graph illustrating a fluorescence intensity measured after binding the anti-HBsAG antibody to which the H2 switching peptide of Example 2 and the Tide-Quencher 2 (TQ2) quenching material are bound, to protein A beads and reacting it with detection sample solutions containing various concentrations of the HBsAg antigens.
FIG. 12 is graphs illustrating a fluorescence intensity measured after reacting the anti-HBsAG antibody to which one of the L1, H1, L2 and H2 switching peptides of Example 2 and the TQ2 quenching material is bound, with HRP, CRP, HBsAg, and hCG sample solutions, respectively.

L2 peptide = experiment: FRET test of specific interaction between H1 and L2 peptides on microplate (FIG. 4A); type: binding; settings: H1 (TAMRA) and L2 (FAM); H1 concentration varied
Description: (§1) FIG. 4A is diagrams illustrating a method for confirming a specific interaction between L1 and H2 peptides and a specific interaction between L2 and H1 peptides and the measurement results thereof, and FIG. 4B is diagrams for explaining a specific interaction between L1 and H2 peptides and a specific interaction between L2 and H1 peptides analyzed using PyMOL software. Here, at the ends of the L1 and L2 peptides, a first fluorescent label, FAM (λex=488 nm, λem=532 nm) was modified, and at the ends of the H1 and H2 peptides, a second fluorescent label, TAMRA (ex=532 nm, hem=570 nm) was modified. Meanwhile, the first peptide (L1 or L2) was immobilized on a parylene-H-coated microplate through a covalent bond between a formyl group of parylene-H and a primary amine group of a lysine residue in the peptide, and a second peptide (H2 or H1) was incubated with the immobilized first peptide (L1 or L2) to allow specific interactions between them.

Inf-A = experiment: One-step immunoassay detection of Inf-A with switching-peptide-bound binding antibody (FIG. 18, 20B); set-up: species or system Influenza A; settings: anti-Inf-A antibody bound to the peptide, treated with Inf-A, CRP, BSA
H2 peptide = experiment: FRET test of specific interaction between L1 and H2 peptides on microplate (FIG. 4A); type: binding; settings: L1 (FAM) and H2 (TAMRA); L1 concentration varied
Description: as §1

anti-HBsAG antibody [4] = experiment: Graphene-quenched immunoassay with TAMRA L1 switching peptide (FIG. 13); type: binding; settings: L1 labeled with TAMRA; graphene quenching material
Description: FIG. 13 is graphs illustrating a fluorescence intensity measured after binding an anti-HBsAg antibody to which an L1 switching peptide labeled with a TAMRA fluorescent label is bound, to a graphene quenching material and reacting it with an HBsAg sample solution.

anti-inf A antibody = experiment: Graphene-quenched immunoassay with TAMRA L1 switching peptide (FIG. 14); type: binding; settings: L1 labeled with TAMRA; graphene quenching material
Description: FIG. 14 is a graph illustrating a fluorescence intensity measured after binding an anti-inf A antibody to which an L1 switching peptide labeled with a TAMRA fluorescent label is bound, to a graphene quenching material and reacting it with an Influenza A sample solution.

Inf-B = experiment: One-step immunoassay detection of Inf-B with switching-peptide-bound binding antibody (FIG. 19, 20D); settings: antibody bound to the peptide, treated with Inf-A, CRP, BSA
Description: Therefore, an antibody bound to the L1 peptide or the H2 peptide may be used for selective detection of the Inf-B.
Therefore, binding antibodies bound to the two types of peptides may have similar responses upon detection of Inf-A.
In addition, since it can be confirmed that the baseline is maintained in the experiment with CoV strain 229E, which is a negative control, the immunoassay based on the two types of binding antibodies may be used to detect Inf-B in actual samples.
Therefore, the immunoassay device using the switching peptide according to the present disclosure may sensitively detect Inf-B in a much wider detection range than conventional rapid tests, and the one-step immunoassay method according to the present disclosure may be used for much more sensitive detection of Inf-A and Inf-B in the entire detection range compared to conventional rapid tests.

anti-SARS-COV-2 antibody = experiment: Graphene-quenched immunoassay with TAMRA L1 switching peptide (FIG. 15); type: binding; settings: L1 labeled with TAMRA; graphene quenching material
Description: FIG. 15 is a graph illustrating a fluorescence intensity measured after binding an anti-SARS-COV-2 antibody to which an L1 switching peptide labeled with a TAMRA fluorescent label is bound, to a graphene quenching material and reacting it with a SARS-CoV-2 sample solution.

[5] = FAM switching peptides of Example 2, TQ2, HRP, CRP, hCG sample solutions (FIG. 12)

SYWIHWVKQRPGQGLEWIGE [H1, SYWIH WVKQR PGQGL EWIGE]
fluorescence intensity at the bottom of the plate decreased by (Anti-HRP antibody(r)): 12.3% | fluorescence intensity in the solution versus antigen concentration [1]: increase in the fluorescence intensity in the solution was observed depending on the concentration of the antigen | fluorescence intensity at the bottom of the plate decreased by (Anti-HBsAg antibody(g)): 41.1% | increase of fluorescence intensity in the solution [2]: 2,184% | In solution (S), Change (%) (Anti-hCG antibody(m)): +206% | In solution (S), Change (%) (Anti-CRP antibody(r)): +152% | fluorescence intensity, antigen selectivity (anti-HBsAG antibody [3]; [5]): high intensity fluorescence was measured only for the HBsAg antigen | FRET intensity (L2 peptide): FRET intensity was observed to increase with increasing the concentration of the H1 peptide

TYLEWYPQKPGQSPKLLIYK [L1, TYLEW YPQKP GQSPK LLIYK]
fluorescence signal, selectivity (Inf-A): significantly higher fluorescence signal is generated when the Inf-A is treated | FRET intensity (H2 peptide): FRET intensity increased with increasing the concentration of the L1 peptide | fluorescence intensity at the bottom of the plate decreased by (Anti-HRP antibody(r)): 12.7% | fluorescence intensity in the solution versus antigen concentration [1]: increase in the fluorescence intensity in the solution was observed depending on the concentration of the antigen | fluorescence intensity versus HBsAg concentration (anti-HBsAG antibody [4]): increased almost linearly as the concentration of the HBsAg antigen contained in the HBsAg sample solution increased | fluorescence intensity at the bottom of the plate decreased by (Anti-HBsAg antibody(g)): 48.7% | fluorescence intensity versus Influenza A antigen concentration (anti-inf A antibody): increased almost linearly as the concentration of the Influenza A antigen contained in the Influenza A sample solution increased | fluorescence signal, selectivity (Inf-B): significantly higher fluorescence signal was generated when the Inf-B is treated | increase of fluorescence intensity in the solution [2]: 1,032% | In solution (S), Change (%) (Anti-hCG antibody(m)): +187% | fluorescence intensity versus SARS-COV-2 antigen concentration (anti-SARS-COV-2 antibody): increased as the concentration of the SARS-COV-2 antigen contained in the SARS-COV-2 sample solution increased | In solution (S), Change (%) (Anti-CRP antibody(r)): +778% | fluorescence intensity, antigen selectivity (anti-HBsAG antibody [3]; [5]): high intensity fluorescence was measured only for the HBsAg antigen

VYYCAREPTGTGIYFDVWGK [H2, VYYCA REPTG TGIYF DVWGK]
fluorescence signal, selectivity (Inf-A): significantly higher fluorescence signal is generated when the Inf-A is treated | fluorescence intensity at the bottom of the plate decreased by (Anti-HRP antibody(r)): 14.8% | fluorescence intensity in the solution versus antigen concentration [1]: increase in the fluorescence intensity in the solution was observed depending on the concentration of the antigen | fluorescence intensity at the bottom of the plate decreased by (Anti-HBsAg antibody(g)): 63.9% | fluorescence signal, selectivity (Inf-B): significantly higher fluorescence signal was generated when the Inf-B is treated | increase of fluorescence intensity in the solution [2]: 2,356% | In solution (S), Change (%) (Anti-hCG antibody(m)): +416% | In solution (S), Change (%) (Anti-CRP antibody(r)): +677% | specificity for the antigen compared with other switching peptides (anti-HBsAG antibody [3]; FAM switching peptides of Example 2, TQ2 (FIG. 12)): specificity for the antigen was relatively low | fluorescence intensity, antigen selectivity (anti-HBsAG antibody [3]; [5]): high intensity fluorescence was measured only for the HBsAg antigen

VYYCFQGSHVPFTK [L2, VYYCF QGSHV PFTK]
fluorescence intensity at the bottom of the plate decreased by (Anti-HRP antibody(r)): 25.5% | fluorescence intensity in the solution versus antigen concentration [1]: increase in the fluorescence intensity in the solution was observed depending on the concentration of the antigen | fluorescence intensity at the bottom of the plate decreased by (Anti-HBsAg antibody(g)): 35.2% | increase of fluorescence intensity in the solution [2]: 2,452% | In solution (S), Change (%) (Anti-hCG antibody(m)): +456% | In solution (S), Change (%) (Anti-CRP antibody(r)): +883% | fluorescence intensity, antigen selectivity (anti-HBsAG antibody [3]; [5]): high intensity fluorescence was measured only for the HBsAg antigen

FAM-VYYCAREPTGTGIYFDVWGK ({FAM}-VYYCAREPTGTGIYFDVWGK) [H2 switching peptide of Example 2]
fluorescence intensity, antigen selectivity (anti-HBsAG antibody [3]; TQ2 quencher, Inf A, Inf B (Florida), Inf B (Tokio), PBS sample solutions (FIG. 9)): high intensity fluorescence was measured only for the HBsAg antigen | fluorescence intensity versus HBsAg concentration (anti-HBsAG antibody [3]; TQ2 quencher, antibody bound to protein A beads (FIG. 11)): increased as the concentration of HBsAg antigens of the detection sample solution increased
